Consider six compounds from US4933347A, “Diamidines and bis(imidazolines) for the treatment of and prophylaxis against pneumocystis carinii pneumonia” (University of North Carolina at Chapel Hill, priority 1988, dated 1990).

The structures appear in SMILES notation.

The nature of data set [1]: Solubility (insoluble, not tested in animals). The class given is physicochemical.
In data set [2] the test system is Pneumocystis carinii. The note with it: in vivo; cited from earlier work.
A short description of data set [3]: Toxicity of amidines in rats (standard laboratory procedure). The note with it: rat, in vivo. The format is in vivo. Here is the method:
Compounds having the structure represented by Formula I were synthesized in accordance with the appropriate procedures discussed previously. The reaction schemes shown in Charts I-III specifically identify the methodology used to synthesize the compounds of the respective examples. The compounds which were synthesized are shown in Table IA and the elemental analysis and melting points of the compounds are shown in Table IB. Most of the compounds were tested for toxicity in rats using standard laboratory procedure and the results of that toxicity testing are shown in Table XII. The compounds of Examples 31, 32, and 34 were not synthesized but may be synthesized in the general manner discussed previously.

Data set [4] relates to Pneumocystis carinii. Briefly: Treatment of Pneumocystis carinii pneumonia in Sprague-Dawley rats (extent of disease by histologic score). The class given is in vivo, male Sprague-Dawley rats. The note with it: for Efficacy in treating Pneumocystis carinii (words): 2.5 mg/kg; for Extent of Disease by Histologic Score: number of animals with score 0.5 / Extent of Disease by Histologic Score: number of animals with score 1 / Extent of Disease by Histologic Score: number of animals with score 2 / Extent of Disease by Histologic Score: number of animals with score 3 / Extent of Disease by Histologic Score: number of animals with score 4: 14 days; for Extent of Disease by Histologic Score: number of animals with score 0.5 / Extent of disease by histologic score (combined): number of animals in scoring group 0.5: 0.5 = <10 cysts found per 2 sections; for Extent of Disease by Histologic Score: number of animals with score 1 / Extent of disease by histologic score (combined): number of animals in scoring group 1: 1 = scattered cysts, <5% of lung involved; for Extent of Disease by Histologic Score: number of animals with score 2 / Extent of disease by histologic score (combined): number of animals in scoring group 2: 2 = scattered cysts; for Extent of Disease by Histologic Score: number of animals with score 2: 5-10% lung involved or small foci of infection; for Extent of Disease by Histologic Score: number of animals with score 3 / Extent of disease by histologic score (combined): number of animals in scoring group 3: 3 = scattered cysts; for Extent of Disease by Histologic Score: number of animals with score 3: 10-50% of lung involved with some intense areas of infection; for Extent of Disease by Histologic Score: number of animals with score 4: 4 = >50% of lung involved with many intense areas of focal infection; for Extent of disease by histologic score (combined): number of animals in scoring group 0.5 / Extent of disease by histologic score (combined): number of animals in scoring group 1 / Extent of disease by histologic score (combined): number of animals in scoring group 2 / Extent of disease by histologic score (combined): number of animals in scoring group 3 / Extent of disease by histologic score (combined): number of animals in scoring group 4: Table XII composite; for Extent of disease by histologic score (combined): number of animals in scoring group 2: 5-10% of lung involved; for Extent of disease by histologic score (combined): number of animals in scoring group 3: 10-50% of lung involved; for Extent of disease by histologic score (combined): number of animals in scoring group 4: 4 = >50% of lung involved.

Take `N=C(N)c1ccc(OCCOc2ccc(C(=N)N)cc2[N+](=O)[O-])c([N+](=O)[O-])c1` [Example 2]: the “Solubility (not tested in animals - insoluble)” value in data set [1] was “insoluble”.

For `N=C(N)c1ccc(OCCCCCOc2ccc(C(=N)N)cc2Br)c(Br)c1` [Example 16], in data set [1], the “Solubility (not tested in animals - insoluble)” value is given as “insoluble”.

In the case of `N=C(N)c1ccc(OCCCOc2ccc(C(=N)N)cc2Br)c(Br)c1` [dibromopropamidine], the “Known effectiveness against Pneumocystis carinii pneumonia” value in the data set with Pneumocystis carinii [2] is on record as “some effectiveness against PCP”.

As to `N=C(N)c1ccc(OCCOc2ccc(C(=N)N)cc2)cc1` [Example 1], the “Solubility (not tested in animals - insoluble)” value in data set [1] is listed as “insoluble”.

In the case of `COc1cc(C2=NCCN2)ccc1OCCCOc1ccc(C2=NCCN2)cc1OC` [Example 44], the “Toxicity of amidines: Effect” value in data set [3] (2.5 mg/kg) is listed as “no toxicity”. Further, the “Efficacy in treating Pneumocystis carinii (words)” value with Pneumocystis carinii [4] is recorded as “very effective in treating Pneumocystis carinii”. In the data set on Pneumocystis carinii [4] (2.5 mg/kg i.v. daily), the “Extent of Disease by Histologic Score: number of animals with score 0.5” value amounted to 6 animals, the “Extent of Disease by Histologic Score: number of animals with score 1” value was found to be 2 animals, the “Extent of Disease by Histologic Score: number of animals with score 2” value worked out at 0 animals and the “Extent of Disease by Histologic Score: number of animals with score 3” value worked out at 0 animals. Besides, the “Extent of Disease by Histologic Score: number of animals with score 4” value in the data set with Pneumocystis carinii [4] (2.5 mg/kg i.v. daily) is given as 0 animals. Moreover, the “Efficacy in treating Pneumocystis carinii (words)” value in the data set with Pneumocystis carinii [4] (listed as Compound 44) is on record as “very good at one fourth the dose level of pentamidine”. In the data set with Pneumocystis carinii [4] (tested at 2.5 mg/kg), the “Extent of disease by histologic score (combined): number of animals in scoring group 0.5” value was 6 animals, the “Extent of disease by histologic score (combined): number of animals in scoring group 1” value is given as 2 animals, the “Extent of disease by histologic score (combined): number of animals in scoring group 2” value was determined as 0 animals and the “Extent of disease by histologic score (combined): number of animals in scoring group 3” value was found to be 0 animals. Further, the “Extent of disease by histologic score (combined): number of animals in scoring group 4” value with Pneumocystis carinii [4] (tested at 2.5 mg/kg) was found to be 0 animals. For the same compound, in the data set with Pneumocystis carinii [4] (compound at 2.5 mg/kg), the “Efficacy in treating PCP compared with pentamidine” value is “much better than pentamidine at only one fourth the dose”.

As for `COc1cc(C(=N)N)ccc1OCCCOc1ccc(C(=N)N)cc1OC` [Example 6], in data set [3] (5 mg/kg), the “Toxicity of amidines: Effect” value is given as “None”. Besides, in the data set with Pneumocystis carinii [4] (5 mg/kg i.v. daily), the “Extent of Disease by Histologic Score: number of animals with score 0.5” value came to 7 animals, the “Extent of Disease by Histologic Score: number of animals with score 1” value stood at 1 animals, the “Extent of Disease by Histologic Score: number of animals with score 2” value was 0 animals and the “Extent of Disease by Histologic Score: number of animals with score 3” value amounted to 0 animals. Further, the “Extent of Disease by Histologic Score: number of animals with score 4” value in the data set on Pneumocystis carinii [4] (5 mg/kg i.v. daily) stood at 0 animals. In the data set on Pneumocystis carinii [4] (tested at 5 mg/kg), the “Extent of disease by histologic score (combined): number of animals in scoring group 0.5” value stood at 7 animals, the “Extent of disease by histologic score (combined): number of animals in scoring group 1” value worked out at 1 animals, the “Extent of disease by histologic score (combined): number of animals in scoring group 2” value worked out at 0 animals and the “Extent of disease by histologic score (combined): number of animals in scoring group 3” value is recorded as 0 animals. Further, the “Extent of disease by histologic score (combined): number of animals in scoring group 4” value in the data set with Pneumocystis carinii [4] (tested at 5 mg/kg) worked out at 0 animals. Further, the “Efficacy in treating PCP compared with control” value with Pneumocystis carinii [4] (compound at 5 mg/kg) was “significantly better, at one half the dose, than the control”.
